Data taken from US10398659B2, “Adjuvant chemotherapy for anaplastic gliomas” (OKLAHOMA MEDICAL RESEARCH FOUNDATION, priority 2008, dated 2019).
Counter-ions that a name gives are not always drawn.

Experiments:
C6 glioma = experiment: intracerebral C6 rat glioma cell implantation model, MR imaging; format: in vivo
Method: The inventors used an intracerebral C6 rat glioma cell implantation method, widely accepted by the glioma research field, as a good model for gliomas. To induce glioma in rats, C6 rat glioma cells (10^6 cells in 10 μL were injected into the cerebral cortex of male Fischer 344 rats. Fifteen days later, 2,4-ds-PBN was orally administered through drinking water (0.015%, 17.5 mg/kg). The efficacy of 2,4-ds-PBN was assessed with the tumor growth patterns and growth rates by using magnetic resonance (MR) imaging (T1/T2-weighted imaging) methods over the course of a month.
(§1) FIG. 4 represents a series of MR images taken over a period of 25 days for an untreated control group and representative data (best-case, average effect, and worst-case) for 2,4-ds-PBN-treated rats (via drinking water administration at a dose of 17 mg/kg/day). […] Rats treated with 2,4-ds-PBN achieved >80% survival over the 40 day study period (n=15), compared to non-treated rats (n=5). […] Gross signs of adverse effects that were monitored included weight loss, ruffling of fur, and behavioural and postural changes.

[1] = monitoring of adverse effects and toxicity in treated glioma rats; format: in vivo
From the text: . n=15 for 2,4-ds-PBN-treated rats, and n=5 for non-treated rats) in 2,4-ds-PBN-treated rats (see FIG. 5). Rats treated with 2,4-ds-PBN achieved >80% survival over the 40 day study period (n=15), compared to non-treated rats (n=5). […] Gross signs of adverse effects that were monitored included weight loss, ruffling of fur, and behavioural and postural changes.

[2] = test system: pro-caspase 3 and pro-caspase 9; experiment: Western blots of apoptotic factors in C6 cells; format: cell-based, rat; settings: increasing concentrations
Method: FIG. 6: Western blots of rat C6 cells with increasing concentrations of 2,4-ds-PBN. Increasing levels of apoptotic factors pro-caspase 3 and pro-caspase 9 are shown, relative to actin.
as §1

C6 cells = experiment: cell proliferation; format: cell-based, rat; settings: concentration dependence
iNOS = iNOS protein expression in C6 cells; format: cell-based, rat; settings: 100 μM
From the text: (§2) The inventors then examined iNOS and VEGF protein expressions in the 2,4-ds-PBN treated C6 cells.

VEGF = VEGF protein expression in C6 cells; format: cell-based, rat; settings: 5 mM
From the text: as §2

solubility in water = format: physicochemical; settings: free acid
From the text: The product so formed is the free acid and is characterized by a molecular weight of […]. It is a white powdery material which decomposes upon heating. […]; 8.836 ppm (d, 8.4 Hz); 8.839 ppm (d, 1.7 Hz); 8.774 ppm (s).

[3] = in vivo; cited from earlier work
[4] = rats; cited from earlier work
C6 gliomas = settings: cited from earlier work

Which “C6 glioma tumor volumes decrease” value (C6 glioma; 17 mg/kg/day via drinking water from day 15 after cell implantation, vs non-treated rats, n=15 vs n=5) does the source give for `CC(C)(C)[N+]([O-])=Cc1ccc(S(=O)(=O)O)cc1S(=O)(=O)O` [2,4-ds-PBN, 2,4-disulfonyl phenyl tert-butyl nitrone] here?
Its value is over 15 fold.

What about the “survival over the 40 day study period” value (C6 glioma; 2,4-ds-PBN in drinking water, n=15, compared to non-treated rats (n=5)) of the same compound?
The value was over 80%.

And the toxicity effects ([1]; rat, in vivo)?
The toxicity effects was “No toxicity effects were detected”.

And the “side effects during the treatment period” value ([1]; weight loss, ruffling of fur, behavioural and postural changes monitored)?
The value was “No side effects were observed”.

And the “apoptotic effect (pro-caspase 3, pro-caspase 9 levels relative to actin)” value [2]?
The value was “pro-apoptotic as concentration increases”.

What about the “inhibition of cell proliferation” value (C6 cells) of the same compound?
Its value is “little effect”.

And the iNOS expression decrease (iNOS)?
Its iNOS expression decrease is “approximately 75%”.

And the VEGF expression reduction (VEGF)?
The VEGF expression reduction was 50%.

And the solubility (solubility in water)?
The solubility was over 1000 mg/mL.

And the blood-brain-barrier penetration [3]?
The blood-brain-barrier penetration was “cannot easily pass through the BBB”.

With `O=NN(CCCl)C(=O)NC1CCCCC1` [Lomustine, 1-(2-chloroethyl)-3-cyclohexyl-1-nitrosourea] as the compound, how does the blood-brain-barrier penetration [3] read?
The blood-brain-barrier penetration was “crosses the blood brain barrier”.

For `CC(C)(C)[N+]([O-])=Cc1ccccc1` [PBN, phenyl N-tert-butyl nitrone], which “inhibition of cell proliferation” value (C6 cells) is on record?
The value was “significantly inhibited cell proliferation in a concentration dependent manner”.

What about the iNOS expression decrease (iNOS) of the same compound?
Its iNOS expression decrease is 5%.

And the half-life [4]?
Its half-life is “about 132 minutes”.

What about the blood-brain-barrier penetration [3] of the same compound?
Its blood-brain-barrier penetration is “easily penetrate the BBB”.

And the “effect on tumor growth, pretreatment” value (C6 gliomas; PBN administration as a pretreatment, rat C6 glioma)?
Its value is “decrease in growth rate and tumor regression”.

And the “effect on tumor regression, post-treatment” value (C6 gliomas; post-treatment of PBN, compared with pre-treatment)?
The value was “little effect for tumor regression”.

With `CC(C)(C)/[N+]([O-])=C/c1ccccc1S(=O)(=O)O` [S-PBN] as the compound, how does the “inhibition of cell proliferation” value (C6 cells) read?
Its value is “little effect”.

For `CC[C@]1(O)C[C@H]2CN(CCc3c([nH]c4ccccc34)[C@@](C(=O)OC)(c3cc4c(cc3OC)N(C=O)[C@H]3[C@@](O)(C(=O)OC)[C@H](OC(C)=O)[C@]5(CC)C=CCN6CC[C@]43[C@@H]65)C2)C1` [Vincristine, vincaleukoblastine, a 22-oxo-, sulfate (1:1) (salt)], which blood-brain-barrier penetration [3] is on record?
Its blood-brain-barrier penetration is “does not appear to cross the blood brain barrier”.
